Patent US20260014146A1, “CDK2 INHIBITORS AND METHODS OF USING THE SAME” (Cedilla Therapeutics, Inc., priority 2022, published 2026)

How the values were obtained:
[1] = tested on: Kuramochi cells labeled with mApple-H2B; assay: IncuCyte cell proliferation assay; format: cell-based; details: Kuramochi RB-WT, cell count 0 to 72 hours; method calls it GI50
Summary of the method: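 mApple-H2B-labelled Kuramochi cells were treated with compound (10-point, half-log dilutions, 20 μM top) and fluorescent nuclei counted by imaging at 0 and 72 h. Fold change in count was normalized to DMSO wells and fitted to dose-response curves to give GI50.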

CDK2/Cyclin E1 [2] = target: T1, CDK2/Cyclin E1 (Homo sapiens (Human), UniProt P24941); assay: ADP-Glo Luminescent Kinase Assay, ADPGLO (CDK2/E1-37C); format: biochemical; details: 0.18 nM CDK2/Cyclin E1, 100 μM ATP, 1.5 μM Histone H1, 37° C.; read-out: Pharmaron ADPGLO (CDK2/E1-37C): IC50
Experimental: Inhibition of CDK2/Cyclin E1 activity by the presence of small molecules was evaluated using ADP-Glo Luminescent Kinase Assay (Promega). Activated CDK2/Cyclin E1 was incubated with its substrate Histone H1 (SignalChem H10-54N) in the kinase reaction buffer (100 μM ATP, 50 mM HEPES pH 7.5, 10 mM MgCl2, 1 mM EDTA, 2 mM DTT, 0.01% Brij35, 0.5 mg/mL BSA). Luminescence was recorded with an Envision plate reader (PerkinElmer).
Dose titrations of inhibitors in 100% DMSO were combined with 0.36 nM CDK2/Cyclin E1 in reaction buffer. The mixtures were incubated for 60 minutes at 37° C. before the addition of ATP and Histone H1 substrate to initiate the kinase reaction. The final conditions were 0.18 nM CDK2/Cyclin E1, 100 μM ATP, and 1.5 μM Histone H1. The reactions were incubated at 37° C. for 90 minutes before being stopped with the addition of ADP-Glo reagent. This mixture was incubated at room temperature for 60 minutes before Kinase Detection Solution is added to generate luminescence. The stopped reactions were analyzed on an Envision plate reader. The conversion ratios were normalized to yield % activity, plotted against compound concentration, and fit to a four-parameter equation to determine the IC50 for each compound.

CDK2/Cyclin E1 [3] = target: T1, CDK2/Cyclin E1; assay: Caliper LabChip EZ Reader mobility shift assay; format: biochemical; details: 2.5 nM CDK2/Cyclin E1 (14-475), 100 μM ATP, 1.5 μM fluorescent peptide; read-out: Caliper Assay (CDK2/CCNE1): IC50
Kuramochi cells = assay: BrdU cell proliferation assay; format: cell-based; details: 96 h, developed on day 4, read-out: BrdU - KURAMOCHI.1: IC50
Experimental: A BrdU assay was used as a measure of proliferation based on the DNA replication process of proliferating cells. BrdU, a pyrimidine analog, is added to the cell culture and incorporated into the DNA of proliferating cells. The presence of the BrdU analog was then measured through a colorimetric ELISA. After fixation and permeabilization of cells, peroxidase-conjugated antibody recognizing BrdU is added and allowed to incubate, followed by thorough washing to remove unbound antibody. In order to quantify the amount of bound antibody, peroxidase substrate is added and produces a color that can be measured at 450 nm.
On day −1, Kuramochi cells (Sekisui XenoTech JCRB0098) were seeded at 2,000 cells/well in columns 2-12 of a 96 well plate (Corning, CLS3596) in 150 uL media and allowed to adhere overnight at 37 degree with 5% CO2. In order to assess specificity of the compounds, Kuramochi RB^KO cells were also plated and treated, as RB^KO cells were not expected to show a proliferative response to CCNE/CDK specific inhibitors.
On day 0, the source plate was prepared by adding 10 mM compounds and performing 3-fold serial dilutions for a 4-point dose response of each compound. Using a multichannel pipette, 2 μL of the contents of the source plate were stamped into an intermediate plate with 500 μL of RPMI 1640 Media, GlutaMAX Supplement (Life Technologies. 61870127) in each well of a Nunc 96 DeepWell™ plate, non-treated 96 DeepWell plate, 2 mL/well, sterile, natural. 60/cs (Sigma Z717274) and mixed thoroughly. 50 uL from row A of this intermediate plate were added to rows A-H of one plate of previously seeded Kuramochi cells, and each subsequent row of the intermediate plate was added to a full plate of cells.
On day 4, the plates were developed using the BrdU ELISA Cell Proliferation Assay according to manufacturer's instructions (Roche, 11647229001). Briefly, BrdU was diluted 1:100 in Gibco®. Opti-MEM® and 20 μL/well was added, shaken for 10 minutes at 350 rpm, and then returned to the incubator for 1 hour. Following incubation, the medium was discarded, and the cells were fixed by adding 200 μL of Fix/Denature solution. The anti-BrdU peroxidase antibody was diluted 1:1000 in OptiMEM, added at 100 μL/well, and incubated while shaking (350 rpm) for one hour. Three washes with PBS were performed to remove any unbound antibody, followed by the addition of 100 μL of substrate solution to each well. […] was then added to halt the reaction, and plates were read out using an Envision spectrophotometer (Perkin Elmer) set to read 450 nm absorbance. Background absorbance values from empty wells were subtracted from all samples and then normalized to DMSO treated wells.

SMILES	IC50 [1]	IC50 (CDK2/Cyclin E1 [2])	IC50 (CDK2/Cyclin E1 [3])	IC50 (Kuramochi cells)
C[C@@H](OCC12CCC(CC1)OC2)[C@H](NC(=O)[C@@H]1CN(c2cc(F)cc3nccnc23)CC12CN(C(=O)C1(C(F)(F)F)CC1)C2)C(=O)N1CCC(c2nccs2)CC1 [Compound I-44, (S)-N-((2S,3R)-3-(2-oxabicyclo[2.2.2]octan-4-ylmethoxy)-1-oxo-1-(4-(thiazol-2-yl)piperidin-1-yl)butan-2-yl)-6-(7-fluoroquinoxalin-5-yl)-2-(1-(trifluoromethyl)cyclopropanecarbonyl)-2,6-diazaspiro[3.4]octane-8-carboxamide]	> 20 µM	0.5 to 5 µM	–	–
COc1ccc(S(=O)(=O)NC(=O)[C@@H](NC(=O)[C@@H]2CN(c3cc(F)cc4ncsc34)CC23CN(C(=O)C2(C(F)(F)F)CC2)C3)[C@@H](C)OCC23CCC(CC2)OC3)cc1 [Compound I-50, (S)-N-((2S,3R)-3-((2-oxabicyclo[2.2.2]octan-4-yl)methoxy)-1-((4-methoxyphenyl)sulfonamido)-1-oxobutan-2-yl)-6-(5-fluorobenzo[d]thiazol-7-yl)-2-(1-(trifluoromethyl)cyclopropane-1-carbonyl)-2,6-diazaspiro[3.4]octane-8-carboxamide]	> 20 µM	5 to 10 µM	–	–
C[C@@H](OCC12CCC(CC1)OC2)[C@@H](COc1ccccc1C(=O)O)NC(=O)[C@@H]1CN(c2cc(F)cc3ncsc23)CC12CN(C(=O)C1(C(F)(F)F)CC1)C2 [Compound I-49, 2-((2R,3R)-3-((2-oxabicyclo[2.2.2]octan-4-yl)methoxy)-2-((S)-6-(5-fluorobenzo[d]thiazol-7-yl)-2-(1-(trifluoromethyl)cyclopropane-1-carbonyl)-2,6-diazaspiro[3.4]octane-8-carboxamido)butoxy)benzoic acid]	> 20 µM	> 10 µM	–	–
C[C@@H](OCC12CCC(CC1)OC2)[C@H](NC(=O)[C@@H]1CN(c2cc(F)cc3ncsc23)CC12CN(C(=O)C1(C(F)(F)F)CC1)C2)C(=O)NS(=O)(=O)c1ccc(F)cc1F [Compound I-51, (S)-N-((2S,3R)-3-(2-oxabicyclo[2.2.2]octan-4-ylmethoxy)-1-(2,4-difluorophenylsulfonamido)-1-oxobutan-2-yl)-6-(5-fluorobenzo[d]thiazol-7-yl)-2-(1-(trifluoromethyl)cyclopropanecarbonyl)-2,6-diazaspiro[3.4]octane-8-carboxamide]	> 20 µM	5 to 10 µM	–	–
CNC(=O)[C@@H](NC(=O)[C@@H]1CN(C(=O)c2cnn(Cc3ccccc3)c2)CC12CN(c1nnn[nH]1)C2)[C@@H](C)OCC1CCCCC1 [Compound I-1, (S)-6-(1-Benzyl-1H-pyrazole-4-carbonyl)-N-((2S,3R)-3-(cyclohexylmethoxy)-1-(methylamino)-1-oxobutan-2-yl)-2-(1H-tetrazol-5-yl)-2,6-diazaspiro[3.4]octane-8-carboxamide]	> 20 µM	–	> 10 µM	> 10 µM
C[C@@H](OCC12CCC(CC1)OC2)[C@H](NC(=O)[C@@H]1CN(c2cc(F)cc3ncsc23)CC12CN(C(=O)C1(C(F)(F)F)CC1)C2)C(=O)N1CCC2(CC1)COC2 [Compound I-46, (S)-N-((2S,3R)-3-(2-oxabicyclo[2.2.2]octan-4-ylmethoxy)-1-oxo-1-(2-oxa-7-azaspiro[3.5]nonan-7-yl)butan-2-yl)-6-(5-fluorobenzo[d]thiazol-7-yl)-2-(1-(trifluoromethyl)cyclopropanecarbonyl)-2,6-diazaspiro[3.4]octane-8-carboxamide]	> 20 µM	> 10 µM	–	–
C[C@@H](OCC12CCC(CC1)OC2)[C@H](NC(=O)[C@@H]1CN(c2cc(F)cc3ncoc23)CC12CN(C(=O)C1(C(F)(F)F)CC1)C2)C(=O)N1CCC(c2nccs2)CC1 [Compound I-52, (S)-N-((2S,3R)-3-((2-oxabicyclo[2.2.2]octan-4-yl)methoxy)-1-oxo-1-(4-(thiazol-2-yl)piperidin-1-yl)butan-2-yl)-6-(5-fluorobenzo[d]oxazol-7-yl)-2-(1-(trifluoromethyl)cyclopropane-1-carbonyl)-2,6-diazaspiro[3.4]octane-8-carboxamide]	5 to 20 µM	5 to 10 µM	–	–
C[C@@H](OCC12CCC(CC1)OC2)[C@H](NC(=O)[C@@H]1CN(c2cccc3nc(O)cnc23)CC12CN(C(=O)C1(C(F)(F)F)CC1)C2)C(=O)N1CCC(c2nccs2)CC1 [Compound I-45, (S)-N-((2S,3R)-3-((2-oxabicyclo[2.2.2]octan-4-yl)methoxy)-1-oxo-1-(4-(thiazol-2-yl)piperidin-1-yl)butan-2-yl)-6-(2-hydroxyquinoxalin-5-yl)-2-(1-(trifluoromethyl)cyclopropane-1-carbonyl)-2,6-diazaspiro[3.4]octane-8-carboxamide]	> 20 µM	> 10 µM	–	–
C[C@@H](OCC12CCC(CC1)OC2)[C@H](NC(=O)[C@@H]1CN(C(=O)c2cncs2)CC12CN(c1ncco1)C2)C(C)(C)O [Compound I-3, (S)-N-((3S,4R)-4-(2-oxabicyclo[2.2.2]octan-4-ylmethoxy)-2-hydroxy-2-methylpentan-3-yl)-2-(oxazol-2-yl)-6-(thiazole-5-carbonyl)-2,6-diazaspiro[3.4]octane-8-carboxamide]	> 20 µM	–	> 10 µM	> 10 µM
C[C@@H](OCC1CCCCC1)[C@H](NC(=O)[C@@H]1CN(c2cccc3ncsc23)CC12CN(C(=O)[C@H]1CC1(C)C)C2)C(=O)N1CCCCC1 [Compound I-7, (S)-6-(benzo[d]thiazol-7-yl)-N-((2S,3R)-3-(cyclohexylmethoxy)-1-oxo-1-(piperidin-1-yl)butan-2-yl)-2-((S)-2,2-dimethylcyclopropanecarbonyl)-2,6-diazaspiro[3.4]octane-8-carboxamide]	> 20 µM	–	0.1 to 1 µM	5 to 10 µM
C[C@@H](OCC1CCCCC1)[C@H](NC(=O)[C@@H]1CN(c2nccc3[nH]ncc23)CC12CN(C(=O)[C@H]1CC1(C)C)C2)C(=O)N1CCCCC1 [Compound I-9, (S)-N-((2S,3R)-3-(cyclohexylmethoxy)-1-oxo-1-(piperidin-1-yl)butan-2-yl)-2-((S)-2,2-dimethylcyclopropanecarbonyl)-6-(1H-pyrazolo[4,3-c]pyridin-4-yl)-2,6-diazaspiro[3.4]octane-8-carboxamide]	> 20 µM	–	> 10 µM	> 10 µM
C[C@@H](OCC1CCCCC1)[C@H](NC(=O)[C@@H]1CN(c2cccc3scnc23)CC12CN(C(=O)[C@H]1CC1(C)C)C2)C(=O)N1CCCCC1 [Compound I-8, 6-(benzo[d]thiazol-4-yl)-N-((2S,3R)-3-(cyclohexylmethoxy)-1-oxo-1-(piperidin-1-yl)butan-2-yl)-2-((S)-2,2-dimethylcyclopropanecarbonyl)-2,6-diazaspiro[3.4]octane-8-carboxamide]	> 20 µM	–	> 10 µM	5 to 10 µM
